# Measurements from patent US20150359854A1 (HUMAN MATRIX SCIENCES, LLC, priority 2012, published 2015).
# “Also recorded” adds a separate entry of the source.
# Assays:
# [1] = tested on: human aortic SMCs (AoSMCs); assay: Immunocytochemistry and morphometry of elastic fibers in AoSMC cultures; assay type: cell-based; details: for effect of inhibitor on elastogenic effects of insulin (immunostained elastic fibers, [3H]-valine-labeled insoluble elastin): 2% FBS; for effect of inhibitor on elastogenic effects of IGF-1: 10 nmol/L IGF-1, parallel AoSMC cultures
# Excerpt: Human aortic SMCs (AoSMCs) were propagated from small fragments of aortic media collected from autopsy. Guidelines for the protection of human subjects of the US Department of Health and Human Services and of the Declaration of Helsinki were followed in obtaining tissues for this investigation. Cells migrating from the cultured explants of aortic media were routinely passaged (up to three times) via trypsinization using 0.2% trypsin-0.02% EDTA, and were maintained in DMEM supplemented with 5% FBS and 1% antibiotic-antimycotic mix. The second and third passages of cells that migrated from the original explants of aortic media were routinely probed with antibodies recognizing the SMC-specific α-actin to monitor the preservation of the SMC phenotype. All cells were initially plated at 100,000 cells per dish for immediate confluency so they would begin extracellular matrix production. The cell cultures committed to particular experiments were then transferred to DMEM containing either 2% FBS or to serum-free medium before initiation of particular treatments.
# At the end of treatments, confluent cultures of AoSMCs were fixed in cold 100% methanol at −20° C. for 30 minutes, and blocked with 1% normal goat serum for 1 hour. The cultures were then incubated for 1 hour with 10 μg/mL polyclonal antibodies to tropoelastin and/or with 10 μg/mL monoclonal antibody to SMC-specific α-actin. All cultures were then incubated for another hour with the respective fluorescein-conjugated secondary antibodies (fluorescein-conjugated goat anti-rabbit or anti-mouse). Nuclei were counterstained with red-fluorescent propidium iodide or blue-fluorescent DAPI. The cultures were then mounted in ethanol and examined using a microscope (Eclipse E1000; Nikon Instruments, Inc., Melville, N.Y.) attached to a cooled CCD camera (Retiga EX; QImaging Corp., Vancouver, BC, Canada) and a computer-generated morphometric analysis system (Image-Pro Plus software; Media Cybernetics, Inc., Bethesda, Md.). In each analyzed group, 50 low-power fields from three separate cultures were analyzed, and the areas occupied by immunodetectable elastic fibers were expressed as a percentage of the entire analyzed field.
# [2] = tested on: tropoelastin mRNA; assay: RT-PCR assay of tropoelastin mRNA; assay type: cell-based, human; details: 10 nmol/L insulin; for effect of inhibitor on insulin-induced up-regulation of tropoelastin mRNA: pretreated 30 minutes and maintained with inhibitor
# Description: At the end of the treatments, total RNA was extracted from quadruplicate cultures in each experimental group using the RNEASY® (RNA isolation) Mini Kit. One microgram total RNA from each sample was added to one-step RT-PCR (One-Step RT-PCR Kit; Qiagen, Inc.). The reactions were set up in a total volume of 25 μL. The reverse transcription step was performed for elastin and 18S ribosomal RNA reactions at 50° C. for 30 minutes, followed by 15 minutes at 95° C. The elastin PCR reaction using sense primer 5′[…]-3′ (SEQ ID NO 1) and antisense primer 5′[…]3′ (SEQ ID NO 2). The products were analyzed using ethidium bromide staining and densitometry-based image analysis using an optical system (Gel Doc 1000; Bio-Rad Laboratories, Inc., Hercules, Calif.). The amount of tropoelastin mRNA was standardized relative to the amount of 18S ribosomal RNA and expressed as percentage of control values.
# [3] = tested on: FoxO1; assay: FoxO1 binding to elastin gene promoter DNA probe (FRE) on DYNABEADS; assay type: cell-based, human; details: AoSMCs treated 30 minutes with 10 nmol/L insulin, or preincubated with LY294002
# Description: Cells were then scraped, and their nuclear extracts were pre-pared using an isolation kit (Active Motif, Inc.). […] The equal molar amounts of both single-stranded DNA oligonucleotides were annealed in Tris-EDTA buffer (10 mmol/L Tris-HCl, 1 mmol/L EDTA (pH 8.0)) to form the double-stranded DNA probe. […] All preparations were subsequently incubated for 2 hours in 200 μL binding buffer (50 mmol/L KCl, 10% glycerol, 20 mmol/L HEPES (pH 7.9), 1 mmol/L MgCl2, 1 mmol/L DTT, 0.1 μg poly(DI-DC) (polydeoxyinosinic-deoxycytidylic), and proteinase inhibitors). After binding, the beads were washed four times in the same binding buffer, without poly(DI-DC). The bound proteins were resolved using 8% SDS-PAGE and probed using Western blotting with the anti-FoxO1 monoclonal antibody.
# [4] = tested on: tropoelastin; assay: Metabolically labeled tropoelastin in cell extracts and conditioned media (secretion); assay type: cell-based, human; details: 1-hour preincubation with LY294002, 10 nmol/L insulin
# Description: Cells were plated in 35-mm dishes at a density of 100,000 cells per dish and were grown to confluency. Two microcuries [3H]-valine per milliliter fresh medium supplemented with 2% FBS was added 2 hours before the indicated treatments. At the end of each experiment, the conditioned medium was collected and subjected to immunoprecipitation using anti-tropoelastin antibody. The cell layers were washed with PBS and incubated using radioimmunoprecipitation lysis buffer for 10 minutes on ice. After centrifugation, the supernatants were collected and subjected to immunoprecipitation using anti-tropoelastin antibody. […] Final results (counts per minute) reflecting the total amount of [3H]-valine-labeled insoluble elastin in individual cultures were normalized per their DNA contents (assessed using the Qiagen […] isolation) Tissue Kit) and expressed as percentage of control values. At the end of all treatments, cells from quadruplicate cultures in each experimental group were lysed using NP40 cell lysis buffer (Invitrogen Corp.). Thirty micrograms of protein extracts from each sample was suspended in standard sample buffer, resolved on 4% to 12% gradient SDS-PAGE gels, transferred to nitrocellulose membranes, and subjected to Western blotting using antibodies. At the end of indicated treatments, the cultured cells were lysed as described, and 300 μL aliquots of cell extracts containing […] were incubated at 4° C. for 3 hours with the aliquots of protein G bound DYNABEADS® (Invitrogen Corp.) that were conjugated with either rabbit polyclonal anti-tropoelastin, goat polyclonal anti-Glut10, or rabbit polyclonal anti-S-Gal antibodies. The beads carrying the final immunoprecipitation products were then washed with PBS, resuspended in sample buffer, and boiled for 5 minutes. The released proteins were then resolved on SDS-PAGE gel and subjected to Western blotting using indicated antibodies.
# [5] = tested on: S-Gal/EBP; assay: Association of tropoelastin with S-Gal/EBP chaperone (Western blot, co-immunoprecipitation, double immunostaining); assay type: cell-based, human
# Description: Cultures fixed for 30 minutes in cold 100% methanol were then blocked with 1% glycine for 15 minutes, followed by 2% bovine serum albumin with 0.1% Triton X-100 for another hour at room temperature. They were finally exposed for 1 hour to the mixture of 5 μg/mL polyclonal anti-S-Gal/EBP and 5 μg/mL monoclonal anti-tropoelastin antibodies. All cultures were then incubated for another hour with the mixture of fluorescein-conjugated and rhodamine-conjugated secondary antibodies. Nuclei were counterstained with DAPI. At the end of all treatments, cells from quadruplicate cultures in each experimental group were lysed using NP40 cell lysis buffer (Invitrogen Corp.). Thirty micrograms of protein extracts from each sample was suspended in standard sample buffer, resolved on 4% to 12% gradient SDS-PAGE gels, transferred to nitrocellulose membranes, and subjected to Western blotting using antibodies. At the end of indicated treatments, the cultured cells were lysed as described, and 300 μL aliquots of cell extracts containing […] were incubated at 4° C. for 3 hours with the aliquots of protein G bound DYNABEADS® (Invitrogen Corp.) that were conjugated with either rabbit polyclonal anti-tropoelastin, goat polyclonal anti-Glut10, or rabbit polyclonal anti-S-Gal antibodies. The beads carrying the final immunoprecipitation products were then washed with PBS, resuspended in sample buffer, and boiled for 5 minutes. The released proteins were then resolved on SDS-PAGE gel and subjected to Western blotting using indicated antibodies.
# [6] = 24-hour AoSMC cultures, 10 nmol/L insulin
# [7] = 10 nmol/L IGF-1, 24-hour AoSMC cultures
compound,measurement,setting,value
CC(C)(C)c1cc(C=C(C#N)C#N)cc(Br)c1O [AG1024],"effect of inhibitor on elastogenic effects of insulin (immunostained elastic fibers, [3H]-valine-labeled insoluble elastin)",[1]; [6],eliminated the elastogenic effects
same,effect of inhibitor on insulin-induced up-regulation of tropoelastin mRNA,[2],abrogated
COc1ccc(CNc2nc(N(CCO)CCO)nc3c2ncn3C(C)C)cc1 [CVT313],effect of cdk-2 inhibition on elastogenic effect of IGF-1,[1]; [7],abolished the final elastogenic effect
same,effect of cdk-2 inhibition on elastogenic effect of insulin,"[1]; 10 nmol/L insulin, 24-hour AoSMC cultures",did not diminish the elastogenic effect; also recorded: still exhibited heightened deposition of elastic fibers
O=c1cc(N2CCOCC2)oc2c(-c3ccccc3)cccc12 [LY294002],binding of FoxO1 from nuclear extracts to elastin promoter FRE DNA probe,[3],bound abundant FoxO1 proteins
same,effect of inhibitor on elastogenic effects of IGF-1,[1],abolished the elastogenic effects; also recorded: also eliminated
same,"effect of inhibitor on elastogenic effects of insulin (immunostained elastic fibers, [3H]-valine-labeled insoluble elastin)",[1]; [6],eliminated the elastogenic effects
same,effect of PI3K inhibition on insulin-induced changes in tropoelastin levels,[4],could not be observed
same,insulin-induced tropoelastin/S-Gal/EBP co-localization in cells preincubated with inhibitor,[5]; LY294002 preincubation (data not shown),could not induce such tropoelastin/S-Gal/EBP co-localization
same,effect of PI3K inhibitor on insulin-induced S-Gal/EBP coimmunoprecipitation,[5]; pretreated 30 minutes with PI3K inhibitor,could not be induced; also recorded: could not induce the same effect
same,effect of inhibitor on insulin-induced up-regulation of tropoelastin mRNA,[2],abrogated
"OC[C@H]1O[C@@H](n2cnc3cc(Cl)c(Cl)cc32)[C@H](O)[C@@H]1O [dichloro-benzimidazole riboside, dichlorobenzimidazole riboside]",effect of transcription inhibitor on insulin-induced up-regulation of tropoelastin mRNA,[2]; pretreatment with 50 μmol/L inhibitor,completely abolished
COc1cc([C@@H]2c3cc4c(cc3[C@H](O)[C@H]3COC(=O)[C@@H]23)OCO4)cc(OC)c1OC [picropodophyllin],effect of inhibitor on elastogenic effects of IGF-1,[1],also eliminated
same,effect of inhibitor on insulin-induced up-regulation of tropoelastin mRNA,[2],did not inhibit
IGF-1,elastogenic effect of IGF-1,[1]; [7],elastogenic effects
